Target: T1, Rat Hepatic Microsomal HMG-CoA reductase (HMGR) (Rattus norvegicus, UniProt P51639)
T1 construct: Microsomes prepared from liver of rats administered with cholestyramine; from tissue
T1 sequence (P51639 1-887): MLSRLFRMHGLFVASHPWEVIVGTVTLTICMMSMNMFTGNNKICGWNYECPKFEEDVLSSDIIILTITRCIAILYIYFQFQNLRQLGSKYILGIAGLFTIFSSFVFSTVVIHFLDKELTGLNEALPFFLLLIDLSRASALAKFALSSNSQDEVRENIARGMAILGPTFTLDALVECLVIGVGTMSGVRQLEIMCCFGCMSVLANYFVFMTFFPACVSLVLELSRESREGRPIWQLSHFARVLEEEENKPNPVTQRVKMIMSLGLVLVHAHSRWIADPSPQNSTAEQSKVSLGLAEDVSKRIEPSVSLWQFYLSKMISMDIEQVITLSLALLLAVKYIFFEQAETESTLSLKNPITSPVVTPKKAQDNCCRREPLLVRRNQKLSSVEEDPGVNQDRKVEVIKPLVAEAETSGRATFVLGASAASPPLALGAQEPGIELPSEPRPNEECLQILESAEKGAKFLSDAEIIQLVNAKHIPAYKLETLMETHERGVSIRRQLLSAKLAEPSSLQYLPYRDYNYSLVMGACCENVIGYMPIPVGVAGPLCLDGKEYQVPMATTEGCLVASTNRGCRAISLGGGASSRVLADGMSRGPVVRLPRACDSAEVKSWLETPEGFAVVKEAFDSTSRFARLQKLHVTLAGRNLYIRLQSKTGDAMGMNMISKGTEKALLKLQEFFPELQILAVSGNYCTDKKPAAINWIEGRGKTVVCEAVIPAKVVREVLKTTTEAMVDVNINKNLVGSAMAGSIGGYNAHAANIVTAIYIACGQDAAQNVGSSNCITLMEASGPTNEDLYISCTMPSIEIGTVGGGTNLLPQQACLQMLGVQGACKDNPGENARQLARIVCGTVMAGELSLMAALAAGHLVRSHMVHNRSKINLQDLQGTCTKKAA
Assay: Inhibitory activity against rat hepatic microsomal HMG-CoA reductase (14C-HMG-CoA substrate, 14C-mevalonolactone measured by TLC and scintillation counting)
Format: biochemical
Details: microsomes from liver of rats administered with cholestyramine, incubated for 10 minutes; for inhibition at 1 µM: Concentration of test compound 10^-6 M
Procedure: Experiment: Inhibitory activity against Rat Hepatic Microsomal HMG-CoA reductase (HMGR)
HMGR activities of microsomes are measured in accordance with the method of N. L. Young et al., Methods in Enzymology, 71, 498 (1981).
Microsomes prepared from liver of rats administered with cholestyramine were mixed with a solution of the compounds to be tested in dimethyl sulfoxide and ¹⁴C-HMG-CoA (substrate). After the mixture was incubated for 10 minutes, the reaction was quenched with 6N hydrochloric acid and the mixture was allowed to stand at 37°C for 15 minutes, followed by centrifugation. The supernatant was spotted on thin layer chromatography (TLC; Kieselgel 60F254 manufactured by Merck) and developed with toluene/acetone (1:1). The spot of ¹⁴C-mevalonolactone was collected and the amount of isotope was measured with a scintillation counter (Type 4640 TRI-CARB. manufactured by Paccard) to calculate an amount of the formed mevalonolactone. By comparing amounts of the formed mevalonolactone in the group treated with test compounds and the control group (without test compounds), HMGR activity inhibition rates of the test compounds were calculated.

Row | inhibition at 100 µM (Concentration of test compound 10^-4 M) [%] | inhibition at 1 µM [%] | Compound
1 | 96 | 79 | O=C(O)C[C@H](O)C[C@H](O)/C=C/C(=C(c1ccc(F)cc1)c1ccc(F)cc1)c1ccccc1 (racemic) [(±)-(3R*,5S*) [r3]]
2 |  | 93 | O=C(O)C[C@H](O)C[C@H](O)/C=C/C(=C(c1ccc(F)cc1)c1ccc(F)cc1)c1ccco1 (single isomer, unassigned) [(-)-(3R*,5S*)]
